Data: US10457662B2, “Substituted amides for treating and preventing cancer” (The Regents of the University of Michigan, priority 2015, dated 2019)
Read-outs that look alike come from different tables or passages of the source.

Key:
[1] = system: WIPI1, GABARAPL1 and LC3B; test: Western blotting of autophagy related proteins in MiaPaCa-2; format: cell-based; conditions: for activation of autophagy: at their IC50 values
Experimental: FIG. 12: QN523 induces protein expression of autophagy markers dose-dependently.
Significant induction of the protein was detected at concentrations as low as 0.25 μM.
(§1) In addition, primary antibodies for LC3B, survivin, cyclin D1, Stat3 and phosphorylated Stat3 (Y705) are from Cell Signaling Technology.

[2] = system: MiaPaCa-2; test: MTT assay, MiaPaCa-2; conditions: Homo sapiens
Experimental: Cells were treated with QN523 for 1, 4, 8, 24, 48, 72 h and left in culture in fresh media. MTT assay was performed 72 h after initiation of treatment. Data points represent Mean±SD from three independent experiments.
(§2) Experiments conducted during the course of developing embodiments for the present invention involved performance of a phenotypic screen of a library of 20,000 small-molecules representing five million compounds. […] Subsequently, a lead optimization campaign was performed to synthesize a series of close analogs. Initially, the 50 analogs were tested in three pancreatic cancer cell lines using MTT assay (Table 1).
(§3) For in vitro studies, compounds were dissolved in DMSO at 10 mM as stock solutions and stored at −20° C. For in vivo studies, QN523 was dissolved in a vehicle containing 5% DMSO, 35% propylene glycol and 60% saline, and administered at 100 uL through intraperitoneal injections.

[3] = system: Panc-1; test: MTT assay, Panc-1; format: cell-based; conditions: Homo sapiens, PANC-1; MTT assay; Mean ± SD, three independent experiments; read-out: IC50 Values Panc-1
Experimental: as §2, §3

[4] = system: BxPC-3; test: MTT assay, BxPC-3; format: cell-based; conditions: Homo sapiens, BXPC-3; MTT assay; Mean ± SD, three independent experiments; read-out: IC50 Values BxPC-3
Experimental: as §2, §3

[5] = system: three pancreatic cancer cell lines; test: MTT assay, three pancreatic cancer cell lines; format: cell-based; conditions: read-out: Mark: IC50 lower than 1 μM in at least one cell line, Table 1
[6] = system: GRP78, CHOP, ATF3, GDF15; test: Western blotting of stress responsive proteins in MiaPaCa-2; format: cell-based
Experimental: FIG. 11: QN523 induces protein expression of stress markers dose-dependently.
This example describes the validation of biomarkers GDF15, ATF3, DDIT3, HSPA5, WIPI1, GABARAPL1 and MAP1LC3B in pancreatic cancer cell lines. To validate the findings from bioinformatics analysis basing on Bru-seq experiments, the proposed biomarkers were further tested in pancreatic cancer cell lines. […] However, the potency of Sulindac is much lower than that of QN523, with IC50 of 300 μM in MiaPaCa-2.
as §1

[7] = MIA PaCa-2, read-out: IC50 Values MiaPaCa-2

SMILES | IC50 [2, 7] | IC50 [3] | IC50 [4] | IC50 [5] | IC50 ([2]; MIA PaCa-2, read-out: IC50 in MiaPaCa-2) | activation of autophagy [1] | protein levels of stress responsive markers HSPA5, DDIT3, ATF3 and GDF15 ([6]; 72 h, western blotting) | autophagy-related markers WIPI1, GABARAPL1 and LC3B ([1]; 72 h treatment, western blotting) | induction of GRP78 and CHOP ([6]; tested at IC50 value)
CSc1ccc2c(c1)N(CCC1CCCCN1C)c1ccccc1S2 (stereo not drawn) [thioridazine] | – | – | – | – | – | robust activation of autophagy | – | – | –
O=C(Nc1cc(OCCF)cc2cccnc12)c1cnccn1 [QN144, Pyrazine-2-carboxylic acid [6-(2-fluoro-ethoxy)-quinolin-8-yl]amide] | 370 ± 150 nM | 0.53 ± 0.21 µM | 4.33 ± 0.76 µM | < 1000 nM | – | – | – | – | –
CN1CCN(CCCN2c3ccccc3Sc3ccc(Cl)cc32)CC1 [prochlorperazine] | – | – | – | – | – | robust activation of autophagy | – | – | most robust induction of GRP78 and CHOP
Cc1cnc(C(=O)Nc2cc(OCCN3CCOCC3)cc3cccnc23)cn1 [QN138, 5-Methyl-pyrazine-2-carboxylic acid [6-(2-morpholin-4-yl-ethoxy)-quinolin-8-yl]-amide] | 730 ± 150 nM | 3.5 ± 0.5 µM | 2 ± 0.87 µM | < 1000 nM | – | – | – | – | –
COc1cc(NC(=O)c2cnccn2)c2ncccc2c1 [QN107] | 280 ± 40 nM | 0.77 ± 0.21 µM | 5.53 ± 1.18 µM | < 1000 nM | – | – | – | – | –

The next lines start with results.

IC50 [2, 7] | IC50 [3] | IC50 [4] | IC50 [5] | IC50 ([2]; MIA PaCa-2, read-out: IC50 in MiaPaCa-2) | SMILES | activation of autophagy [1] | protein levels of stress responsive markers HSPA5, DDIT3, ATF3 and GDF15 ([6]; 72 h, western blotting) | autophagy-related markers WIPI1, GABARAPL1 and LC3B ([1]; 72 h treatment, western blotting) | induction of GRP78 and CHOP ([6]; tested at IC50 value)
300 ± 100 nM | 5.33 ± 1.53 µM | > 10 µM | < 1000 nM | – | O=C(Nc1cc(F)cc2cccnc12)c1ncccn1 [QN658, Pyrimidine-2-carboxylic acid (6-fluoroquinolin-8-yl)amide] | – | – | – | –
– | – | – | – | 300000 nM | CC1=C(CC(=O)O)c2cc(F)ccc2/C1=C\c1ccc([S+](C)[O-])cc1 (stereo not drawn) [Sulindac] | – | induced | Accumulation | –
310 ± 160 nM | 2.12 ± 0.94 µM | > 10 µM | < 1000 nM | – | Cc1cnc(C(=O)Nc2cc(F)cc3cccnc23)cn1 [QN652, 5-Methylpyrazine-2-carboxylic acid (6-fluoroquinolin-8-yl)amide] | – | – | – | –
870 ± 150 nM | 9.5 ± 0.5 µM | 9.17 ± 0.76 µM | < 1000 nM | – | CC(C)(C)OC(=O)NCCOc1cc(NC(=O)c2cnccn2)c2ncccc2c1 [QN151, (2-{8-[(Pyrazine-2-carbonyl)amino]quinolin-6-yloxy}ethyl)carbamic acid tert-butyl ester] | – | – | – | –
750 ± 90 nM | 7.02 ± 2.92 µM | 7.51 ± 1.32 µM | < 1000 nM | – | O=C(Nc1ccc(Br)c2cccnc12)c1cnccn1 [QN618, Pyrazine-2-carboxylic acid (5-bromoquinolin-8-yl)amide] | – | – | – | –
800 ± 50 nM | 4.67 ± 1.53 µM | > 10 µM | < 1000 nM | – | O=C(Nc1cc(Cl)cc2cccnc12)c1ncccn1 [QN794, N-(6-Chloroquinolin-8-yl)pyrimidine-2-carboxamide] | – | – | – | –
670 ± 120 nM | 2.17 ± 0.76 µM | 3.67 ± 0.76 µM | < 1000 nM | – | Cc1cnc(C(=O)Nc2cc(OCCNC(=O)OC(C)(C)C)cc3cccnc23)cn1 [QN152, (2-{8-[(5-Methylpyrazine-2-carbonyl)amino]quinolin-6-yloxy}ethyl)carbamic acid tert-butyl ester] | – | – | – | –
